Experimental data published in US9452217B2, “Methods for potentiating immune response for the treatment of infectious diseases and cancer” (Nitor Therapeutics, priority 2013, dated 2016).

Tests used:
Format in all cases: cell-based
human TLR4 = target: T1, human TLR4 (Homo sapiens, UniProt O00206+Q9Y6Y9); assay: TLR ligand screening: NF-κB activation (SEAP reporter) in HEK293 cells expressing TLR4; settings: one concentration: Guanosine 100 uM, NTR001 10 uM, Inosine 100 uM; FIG. 2
T1 construct: expressed in transfected cells; host or cells: HEK293
Method: (§1) Method: TLR stimulation is tested by assessing NF-κB activation in HEK293 cells expressing a given TLR. The Secreted Embryonic Alkaline Phosphatase (SEAP) reporter is under the control of a promoter inducible by the transcription factor NF-κB. This reporter gene allows the monitoring of signaling through the TLR, based on the activation of NF-κB. The compounds are evaluated at one concentration and compared to control ligands. This step is performed in triplicate.

human TLR8 = target: T2, human TLR8 (Homo sapiens, UniProt Q9NR97); assay: TLR ligand screening: NF-κB activation (SEAP reporter) in HEK293 cells expressing TLR8; settings: one concentration: NTR001 10 uM, Inosine 100 uM; FIG. 2
T2 construct: expressed in transfected cells; host or cells: HEK293
T2 sequence (Q9NR97 27-1041): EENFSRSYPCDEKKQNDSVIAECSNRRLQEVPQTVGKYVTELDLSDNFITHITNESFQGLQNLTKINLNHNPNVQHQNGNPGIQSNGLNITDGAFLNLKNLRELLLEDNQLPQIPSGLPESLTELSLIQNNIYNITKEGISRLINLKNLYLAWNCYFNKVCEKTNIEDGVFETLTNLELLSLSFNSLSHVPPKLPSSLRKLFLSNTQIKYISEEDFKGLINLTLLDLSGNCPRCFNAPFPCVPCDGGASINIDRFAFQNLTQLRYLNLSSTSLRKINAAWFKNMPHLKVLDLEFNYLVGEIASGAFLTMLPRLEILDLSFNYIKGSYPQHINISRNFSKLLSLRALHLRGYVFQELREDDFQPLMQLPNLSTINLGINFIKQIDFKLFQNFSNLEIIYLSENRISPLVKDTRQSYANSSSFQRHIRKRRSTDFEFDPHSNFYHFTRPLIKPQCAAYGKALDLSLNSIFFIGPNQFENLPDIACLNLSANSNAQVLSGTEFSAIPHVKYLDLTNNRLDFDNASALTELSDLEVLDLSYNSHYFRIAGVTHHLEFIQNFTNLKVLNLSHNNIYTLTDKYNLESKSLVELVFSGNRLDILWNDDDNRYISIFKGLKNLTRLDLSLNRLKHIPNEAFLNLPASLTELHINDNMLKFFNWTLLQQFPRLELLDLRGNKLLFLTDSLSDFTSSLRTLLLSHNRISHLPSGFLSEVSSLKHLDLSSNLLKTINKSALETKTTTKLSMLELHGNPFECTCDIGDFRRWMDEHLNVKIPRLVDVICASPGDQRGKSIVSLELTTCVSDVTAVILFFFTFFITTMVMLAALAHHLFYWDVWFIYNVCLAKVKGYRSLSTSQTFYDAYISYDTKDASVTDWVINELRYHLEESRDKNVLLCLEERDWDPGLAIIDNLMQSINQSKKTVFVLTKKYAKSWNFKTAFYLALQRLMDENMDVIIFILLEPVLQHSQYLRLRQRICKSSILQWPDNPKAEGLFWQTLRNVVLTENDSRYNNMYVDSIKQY
Method: as §1

human TLR9 = target: T3, human TLR9 (Homo sapiens, UniProt Q9NR96); assay: TLR ligand screening: NF-κB activation (SEAP reporter) in HEK293 cells expressing TLR9; settings: one concentration: NTR001 10 uM, Inosine 100 uM; FIG. 2
T3 construct: expressed in transfected cells; host or cells: HEK293
T3 sequence (Q9NR96 26-1032): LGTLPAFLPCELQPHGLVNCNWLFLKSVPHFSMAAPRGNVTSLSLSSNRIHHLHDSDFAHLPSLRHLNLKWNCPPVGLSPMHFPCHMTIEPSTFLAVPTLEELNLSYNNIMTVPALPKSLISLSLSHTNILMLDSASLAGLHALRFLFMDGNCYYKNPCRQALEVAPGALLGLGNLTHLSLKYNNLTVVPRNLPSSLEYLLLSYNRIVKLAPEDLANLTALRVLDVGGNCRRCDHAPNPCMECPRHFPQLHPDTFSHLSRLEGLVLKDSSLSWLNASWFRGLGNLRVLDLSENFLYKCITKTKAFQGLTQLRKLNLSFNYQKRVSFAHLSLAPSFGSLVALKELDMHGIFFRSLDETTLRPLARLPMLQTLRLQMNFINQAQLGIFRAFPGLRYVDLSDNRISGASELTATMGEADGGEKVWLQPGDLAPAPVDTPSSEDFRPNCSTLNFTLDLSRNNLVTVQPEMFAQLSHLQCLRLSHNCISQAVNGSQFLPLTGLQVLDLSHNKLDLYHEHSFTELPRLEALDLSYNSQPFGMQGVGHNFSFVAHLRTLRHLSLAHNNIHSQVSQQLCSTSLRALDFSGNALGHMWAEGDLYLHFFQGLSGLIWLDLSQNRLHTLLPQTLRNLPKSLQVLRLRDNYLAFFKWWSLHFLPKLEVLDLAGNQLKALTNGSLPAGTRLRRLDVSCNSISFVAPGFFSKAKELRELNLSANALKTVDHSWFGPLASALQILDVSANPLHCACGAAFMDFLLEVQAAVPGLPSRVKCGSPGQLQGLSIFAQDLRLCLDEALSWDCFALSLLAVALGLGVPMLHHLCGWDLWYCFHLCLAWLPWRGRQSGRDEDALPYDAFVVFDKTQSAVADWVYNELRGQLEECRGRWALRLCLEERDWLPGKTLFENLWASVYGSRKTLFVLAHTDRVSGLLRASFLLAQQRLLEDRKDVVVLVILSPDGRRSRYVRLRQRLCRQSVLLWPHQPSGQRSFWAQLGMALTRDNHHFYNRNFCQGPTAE
Method: as §1

T1 sequence (O00206 24-839): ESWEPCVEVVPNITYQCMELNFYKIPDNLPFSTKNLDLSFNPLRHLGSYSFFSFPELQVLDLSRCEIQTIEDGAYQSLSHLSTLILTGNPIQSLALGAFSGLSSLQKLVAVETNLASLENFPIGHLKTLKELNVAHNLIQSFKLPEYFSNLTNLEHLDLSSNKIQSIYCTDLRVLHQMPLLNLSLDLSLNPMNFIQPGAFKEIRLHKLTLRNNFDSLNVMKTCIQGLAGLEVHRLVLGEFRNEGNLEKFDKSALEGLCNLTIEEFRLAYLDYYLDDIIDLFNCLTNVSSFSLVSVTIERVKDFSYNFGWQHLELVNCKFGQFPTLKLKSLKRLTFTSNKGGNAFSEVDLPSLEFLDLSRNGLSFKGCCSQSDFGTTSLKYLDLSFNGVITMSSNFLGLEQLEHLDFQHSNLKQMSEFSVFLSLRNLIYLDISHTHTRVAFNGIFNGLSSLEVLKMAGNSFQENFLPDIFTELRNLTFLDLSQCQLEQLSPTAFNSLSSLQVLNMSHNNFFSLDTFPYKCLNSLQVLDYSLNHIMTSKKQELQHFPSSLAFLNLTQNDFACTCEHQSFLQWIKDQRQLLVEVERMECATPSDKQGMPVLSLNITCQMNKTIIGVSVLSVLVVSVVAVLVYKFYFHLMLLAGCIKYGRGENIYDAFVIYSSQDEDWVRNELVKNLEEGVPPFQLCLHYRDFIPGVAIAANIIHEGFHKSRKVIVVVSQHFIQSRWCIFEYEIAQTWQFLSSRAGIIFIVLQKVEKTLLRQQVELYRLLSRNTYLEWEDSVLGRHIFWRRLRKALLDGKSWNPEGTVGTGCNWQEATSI
T1 sequence (Q9Y6Y9 17-160 limits assumed): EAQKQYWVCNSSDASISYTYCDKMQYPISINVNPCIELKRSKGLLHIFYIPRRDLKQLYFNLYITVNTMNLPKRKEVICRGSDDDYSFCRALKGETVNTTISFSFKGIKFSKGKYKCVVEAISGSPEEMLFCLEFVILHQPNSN

OC[C@H]1O[C@@H](n2cnc3c(O)ncnc32)[C@H](O)[C@@H]1O [Inosine]
do not exhibit a stimulatory effect: stimulatory effect on human TLR4 (human TLR4) | stimulatory effect on human TLR8 (human TLR8) | stimulatory effect on human TLR9 (human TLR9)

O=c1[nH]cnc2c([C@@H]3N[C@H](CO)[C@@H](O)[C@H]3O)c[nH]c12 [NTR001, 7-[(2S,3S,4R,5R)-3,4-dihydroxy-5-(hydroxymethyl)-2-pyrrolidinyl]-1,5-dihydro-4H-pyrrolo [3,2-d]pyrimidin-4-one]
do not exhibit a stimulatory effect: stimulatory effect on human TLR4 (human TLR4) | stimulatory effect on human TLR8 (human TLR8) | stimulatory effect on human TLR9 (human TLR9)
